Tests used:
[1] = target: T1, N-CTD (C-terminal domain of the SARS-CoV-2 nucleocapsid (N) protein) (Severe acute respiratory syndrome coronavirus 2, UniProt P0DTC9); assay: biochemical; format: binding
[2] = target: T1, N-CTD (C-terminal domain of the SARS-CoV-2 nucleocapsid (N) protein); assay: fluorescence intensity inhibition of FAM-RNA binding; format: biochemical

Compound	Kd [1] [µM]	IC50 [2] [µM]
CO/N=C(\C(=O)N[C@@H]1C(=O)N2C(C(=O)O)=C(COC(N)=O)CS[C@H]12)c1ccco1 [cefuroxime]	55 ± 4.2	15.4 ± 2.8
CC1(C)S[C@@H]2[C@H](NC(=O)[C@H](N)c3ccccc3)C(=O)N2[C@H]1C(=O)O [ampicillin]	28 ± 1.2	10.4 ± 0.2
CO/N=C(\C(=O)N[C@@H]1C(=O)N2C(C(=O)O)=C(CSc3nc(=O)c(=O)[nH]n3C)CS[C@H]12)c1csc(N)n1 [ceftriaxone]	18 ± 1.3	12.4 ± 2.4

Reference: doi:10.1101/2024.10.11.617762v1 (biorxiv, 2024)
